{
  "source": "patent US6458382B1",
  "about": "“Nucleic acid transfer complexes” (Mirus Corporation, priority 1999, dated 2002)",
  "key": {"insect cells": {"test_system": "insect cells", "assay": "Transfection of insect cells with DOTAP-based reagent", "conditions": "insect cell lines grown in vitro (e.g., Sf9, Sf21, High Five, S2)", "source_text": "Addition of detergents increases the efficiency of a transfection reagent. However, the optimal type and amount of detergent vary for different transfection reagents and target cell types. […] In a typical transfection reagent, the DOTAP is mixed with a neutral lipid (e.g., DOPE, cholesterol) to form a liposome. […] Optimal enhancement with DLPE was obtained over a range of 1-10% (weight percentage of total composition of DOTAP, DOPE, and neutral lipid)."}, "Sf9 cells": {"test_system": "Sf9 cells", "assay": "Transfection of Sf9 cells, β-galactosidase reporter (Examples 3, 4)", "type": "cell-based, Spodoptera frugiperda", "conditions": "for Efficiency of detergent added to DOTAP/neutral lipid reagent, in words: transfecting Sf9 cells", "protocol": "Sf21 (Spodoptera frugiperda pupal ovarian cells) cells were maintained in TC-100 medium, and High Five or BTI-TN-5BI-4 (Trichoplusia ni embryonic ovarian cells) cells were maintained in Ex-Cell medium at 27° C. in an atmosphere of 5% CO2 in air. S2 (Drosophila melanogaster embryonic cells) were maintained in Shields and Sang M3 medium supplemented with 5% FCS at 25° C. The cells were seeded in a 6-well plate (35 mm culture dishes) 24 h before the transfection at 70% confluence. Before transfection, the cells were washed once or twice with serum-free medium, and placed in 2 ml serum-free medium per 35-mm dish. The liposomes were diluted in 0.15 ml of serum-free medium. Following a 5 minute incubation at room temperature, two μg of plasmid DNA (containing the luciferase or β-galactosidase reporter genes described below) was added, followed by a 5 minute incubation at room temperature prior to being added to the cells in the culture dish. The cells were incubated under the appropriate conditions. After four hours, the transfection mixture was removed and replaced with 2 ml of regular culture medium. […]\nThe firefly luciferase and E. coli β-galactosidase reporter genes were used to determine the efficiency of DNA transfer quantitatively. […]\nFor determination of luciferase activity, cells were lysed by the addition of 200 μl of lysis buffer (0.1% Triton X-100, 0.1M K-phosphate, 1 mM DTT, pH 7.8). Ten μl of the cellular extract were analyzed for luciferase activity, using the Enhanced Luciferase Assay kit (Mirus). For determination of β-galactosidase activity, the cells were lysed by the addition of 200 μl of lysis buffer (0.1% Triton X-100, 0.1M K-phosphate, 1 mM DTT, pH 7.8). β-Galactosidase activity was determined using a chemiluminescent assay (Tropix).\nTwo μg of the β-galactosidase expression vector pIE1HR5/LacZ were transfected into Sf9 cells using TRANSIT-INSECTA, Reagent C (CELLFECTIN from Life Technologies) and Reagent I (INSECTIN-PLUS from Invitrogen). […] Reporter gene expression was determined after 2 days using a chemiluminescent assay (Tropix). […]"}, "[1]": {"conditions": "background statement on prior art; cited from earlier work"}},
  "data": [
    {"smiles": "CCCCCCCC/C=C\\CCCCCCCC(=O)OCC(C[N+](C)(C)C)OC(=O)CCCCCCC/C=C\\CCCCCCCC", "note": "(centres unmarked) [DOTAP, 1,2-bis(oleoyloxy)-3-(4′-trimethylammonio)propane]", "values": [
      {"measurement": "Transfection efficiency for insect cells, in words", "setting": "insect cells", "value": "efficient transfection reagent"}
    ]},
    {"smiles": "CCCCCCCCCCCC(=O)OC[C@H](COP(=O)(O)OCCN)OC(=O)CCCCCCCCCCC", "note": "[DLPE, dilauroyl phosphatidylethanolamine]", "values": [
      {"measurement": "Efficiency of detergent added to DOTAP/neutral lipid reagent, in words", "setting": "Sf9 cells", "value": "more efficient than addition of CHAPS"},
      {"measurement": "Range of DLPE giving optimal enhancement of transfection efficiency", "setting": "Sf9 cells; weight percentage of total composition of DOTAP, DOPE, and neutral lipid", "value": "1-10%"}
    ]},
    {"smiles": "CCCCCCCCCCCC(=O)OC[C@H](COP(=O)([O-])OCC[N+](C)(C)C)OC(=O)CCCCCCCCCCC", "note": "[DLPC, dilauroylphosphatidylcholine]", "values": [
      {"measurement": "Efficiency of detergent added to DOTAP/neutral lipid reagent, in words", "setting": "Sf9 cells", "value": "more efficient than addition of CHAPS"}
    ]},
    {"smiles": "CCCCCCCCCCCCCCCCCCN", "note": "[Stearylamine]", "values": [
      {"measurement": "cytotoxicity, in words", "setting": "[1]", "value": "great cytotoxicity"}
    ]}
  ]
}
